This is an account of results in patent US5620954A, “Peptide compositions and uses therefor” (Magainin Pharmaceuticals, Inc., priority 1995, dated 1997).

Experiment in all cases: Antibacterial assay, minimal inhibitory concentration (MIC), microtiter broth dilution
Format in all cases: cell-based
A general note: Dilution methods test growth across graded concentrations, often in twofold steps.

Experiment [1] deals with E.coli ATCC strain 25922. To be noted: E. coli ATCC 25922; Mueller Hinton broth; 16-20 hours at 37° C. The text has this: (§1) Table I, which follows, indicates the Minimal Inhibitory Concentration (MIC) in μg/ml of Peptides (SEQ ID NO:1) through (SEQ ID NO:27 ) against S. aureus strain ATCC 25923, P. aeruginosa strain ATCC 27853, and E.coli ATCC strain 25922. (Legend) The procedure for the antibacterial assay is based upon the guidelines of the National Committee for Clinical Laboratory Standards, Document M7-T2, Volume 8, No. 8, 1988. Stock solutions of the hereinabove described peptides in accordance with the present invention are prepared at a concentration of 512 μg/ml in sterile deionized distilled water and stored at -70° C. The stock peptide solution is diluted in serial dilutions (1:2) down the wells of a microtiter plate so that the final concentrations of peptides in the wells are 0.25, 0.50, 1, 2, 4, 8, 16, 32, 64, 128, and 256 μg/ml. 1-5×10^5 CFUs/ml of either S. aureus ATCC 25923, E. coli ATCC 25922, or P. aeruginosa ATCC 27853 were added to the wells in full strength Mueller Hinton broth (BBL 11443) from a mid-log culture. The inoculum is standardized spectrophotometrically at 600 nm and is verified by colony counts. The plates are incubated for 16-20 hours at 37° C., and the minimal inhibitory concentration (MIC) for each peptide is determined. Minimal inhibitory concentration is defined as the lowest concentration of peptide which produces a clear well in the microtiter plate.

The subject of experiment [2] is P. aeruginosa strain ATCC 27853. To be noted: P. aeruginosa ATCC 27853; Mueller Hinton broth; 16-20 hours at 37° C.
Text: as §1

Experiment [3] relates to S. aureus strain ATCC 25923. To be noted: S. aureus ATCC 25923; Mueller Hinton broth; 16-20 hours at 37° C.
Text: as §1

In the case of “SEQ ID NO: 25: biologically active amphiphilic peptide (GFKKFLGKALKAALKIGANLLGGTPQQ)”, the “Minimal Inhibitory Concentration (MIC), Activity, E. coli” value in experiment [1] is listed as 8,32 μg/ml. Also, the “Minimal Inhibitory Concentration (MIC), Activity, P. aeruginosa” value in experiment [2] turned out to be 32 µg/mL. The “Minimal Inhibitory Concentration (MIC), Activity, S. aureus” value in experiment [3] was 8,16 μg/ml.

On to “SEQ ID NO: 26: biologically active amphiphilic peptide (GLASFLGKALKAALKIGANLLGGTPQQ)”, for which the “Minimal Inhibitory Concentration (MIC), Activity, E. coli” value in experiment [1] was 8,16 μg/ml. For the same substance, the “Minimal Inhibitory Concentration (MIC), Activity, P. aeruginosa” value in experiment [2] is recorded as 64,128 μg/ml. The “Minimal Inhibitory Concentration (MIC), Activity, S. aureus” value in experiment [3] is listed as 16,32 μg/ml.

On to “SEQ ID NO: 23: biologically active amphiphilic peptide (GFAKFLGKALKAALKIGANLLGGTPQQ)”, for which, in experiment [1], the “Minimal Inhibitory Concentration (MIC), Activity, E. coli” value was 4,8 μg/ml. Also, the “Minimal Inhibitory Concentration (MIC), Activity, P. aeruginosa” value in experiment [2] was 8,16 μg/ml. For the same substance, the “Minimal Inhibitory Concentration (MIC), Activity, S. aureus” value in experiment [3] worked out at 8 µg/mL.

With “SEQ ID NO: 27: biologically active amphiphilic peptide (GLASLLGKALKAALKIGANLLGGTPQQ)”, in experiment [1], the “Minimal Inhibitory Concentration (MIC), Activity, E. coli” value was 32 µg/mL. Also, in experiment [2], the “Minimal Inhibitory Concentration (MIC), Activity, P. aeruginosa” value is 128 µg/mL. In addition, in experiment [3], the “Minimal Inhibitory Concentration (MIC), Activity, S. aureus” value came out at 32 µg/mL.

As for “SEQ ID NO: 22: biologically active amphiphilic peptide (GFGSFLGKALKAALKIGANLLGGTPQQ)”, the “Minimal Inhibitory Concentration (MIC), Activity, E. coli” value in experiment [1] is on record as 8,16 μg/ml. For the same substance, the “Minimal Inhibitory Concentration (MIC), Activity, P. aeruginosa” value in experiment [2] is given as 16,32 μg/ml. Further, in experiment [3], the “Minimal Inhibitory Concentration (MIC), Activity, S. aureus” value came out at 16 µg/mL.

As for “SEQ ID NO: 24: biologically active amphiphilic peptide (GFGKFLGKALKAALKIGANLLGGTPQQ)”, the “Minimal Inhibitory Concentration (MIC), Activity, E. coli” value in experiment [1] is 8,16 μg/ml. The “Minimal Inhibitory Concentration (MIC), Activity, P. aeruginosa” value in experiment [2] is 16 µg/mL. Moreover, in experiment [3], the “Minimal Inhibitory Concentration (MIC), Activity, S. aureus” value is 8 µg/mL.

For the substance “SEQ ID NO: 21: biologically active amphiphilic peptide (GLASLLGKALKAALKIGANMLGGSPQQ)”, in experiment [1], the “Minimal Inhibitory Concentration (MIC), Activity, E. coli” value turned out to be 32 µg/mL. For the same substance, the “Minimal Inhibitory Concentration (MIC), Activity, P. aeruginosa” value in experiment [2] is 128 µg/mL. Further, the “Minimal Inhibitory Concentration (MIC), Activity, S. aureus” value in experiment [3] came out at 64 µg/mL.
